The test system of the assay is TrGDH (His6-TF-TrGDH). Nature of the assay: NADPH oxidation at […] nm, Lineweaver-Burk. It is filed as biochemical, Trichurus sp. The note with it: amination; 2-OG 1-10 mM, 100 μM NADPH, NH4Cl co-substrate, Tris pH 8.0, 25 °C.

The structures appear in SMILES notation.

Data on one compound can be found in PMC6776155 (Breeding Science, 2019).

Regarding `O=C(O)CCC(=O)C(=O)O` [2-oxoglutarate], the Km (commonly the concentration of substrate that gives half-maximal velocity) is 1570 ± 190 µM.
